In one data set the test system is HAoEC. The experiment in a line: In vitro ATP release assay, HAoEC. In kind it is cell-based, human. Here is the method:
In vitro Human arterial and venous ECs were seeded in 24-well plates pre-coated with 0.2% gelatin and grown to confluency. On the day of experiment, the media was removed from each well and cells were carefully washed twice with warm serum free basal EC medium supplemented with 1% BSA. Cells were then incubated in 300 μL of fresh basal EC medium supplemented with 1% BSA for 30 minutes at 37° C. to allow degradation of extracellular ATP released due to mechanical stimulation during washes. Endogenous ecto-nucleotidases were inhibited by incubating EC monolayers with 300 μM ARL 67156 (Tocris) for 30 minutes at 37° C. Cells were then stimulated with recombinant human TNFα (R&D Systems). For dose response experiments, ECs were incubated with 0.1, 1, 5, 10, 50, or 100 ng/mL recombinant TNFα for 30 minutes at 37° C. […] The role of caspase activation was assessed by inhibition with the pan-caspase blocker Q-VD-OPh (100 μM; Sigma). […] Using a FluoStar Omega luminometer, 50 μL of luciferin:luciferase reagent (ATP bioluminescence assay kit HSII; Roche) was injected into each well and luminescence was recorded following a 5s orbital mix. ATP concentration in each sample was calculated from a standard curve for all experiments. Data are presented as a % change in ATP release from baseline (i.e. unstimulated cells) and expressed as mean±SEM (n=5 independent experiments with triplicate measurements).

Another data set relates to HUVEC. The experiment in a line: In vitro ATP release assay (luciferin:luciferase), HUVEC. In kind it is cell-based, human. The method, then: (§1) In vitro Human arterial and venous ECs were seeded in 24-well plates pre-coated with 0.2% gelatin and grown to confluency. On the day of experiment, the media was removed from each well and cells were carefully washed twice with warm serum free basal EC medium supplemented with 1% BSA. Cells were then incubated in 300 μL of fresh basal EC medium supplemented with 1% BSA for 30 minutes at 37° C. to allow degradation of extracellular ATP released due to mechanical stimulation during washes. Endogenous ecto-nucleotidases were inhibited by incubating EC monolayers with 300 μM ARL 67156 (Tocris) for 30 minutes at 37° C. Cells were then stimulated with recombinant human TNFα (R&D Systems). For dose response experiments, ECs were incubated with 0.1, 1, 5, 10, 50, or 100 ng/mL recombinant TNFα for 30 minutes at 37° C. For time-course experiments, ECs were stimulated with 10 ng/mL recombinant TNFα for different time points up to 1 hour. In experiments where pharmacological inhibitors were employed, ECs were incubated with antagonists in parallel with ARL 67156 for 30 minutes. To inhibit TNFR1, ECs were incubated with the peptide antagonist of the receptor WP9QY (10 μM; Anaspec). […] Cx hemichannels were inhibited with lanthanum (La^3+; 100 μM; Sigma) and Panx1 channels were blocked with carbenoxolone (CBX; 50 μM; Sigma) and the inhibitory peptide ^10panx1 (200 μM; Genscript). […] The role of caspase activation was assessed by inhibition with the pan-caspase blocker Q-VD-OPh (100 μM; Sigma). Following stimulation with TNFα or vehicle, 150 μL of the cell supernatant was collected and immediately placed into pre-chilled 1.5 mL Eppendorf tubes on ice. All samples were centrifuged at 10,000×g for 5 minutes and 50 μL of each sample was transferred to a white, opaque 96-well plate. Using a FluoStar Omega luminometer, 50 μL of luciferin:luciferase reagent (ATP bioluminescence assay kit HSII; Roche) was injected into each well and luminescence was recorded following a 5s orbital mix. ATP concentration in each sample was calculated from a standard curve for all experiments. Data are presented as a % change in ATP release from baseline (i.e. unstimulated cells) and expressed as mean±SEM (n=5 independent experiments with triplicate measurements).

The next data set concerns the target T1, Panx1 channels in HUVEC (Homo sapiens, UniProt Q96RD7).
T1 construct: Primary human umbilical vein endothelial cells (HUVEC) were purchased from Cell Applications; PromoCell 200K-05; C-12231; host or cells: HUVEC, HSaVEC (primary human venous endothelial cells)
The experiment in a line: YO-PRO-1 dye uptake assay. Conditions: TNFα 30 minutes, dose dependent. Format: cell-based. Here is the method:
HUVECs were cultured on poly-L-lysine coated coverslips and grown to confluence in EGM. Cells were washed three times with 1× PBS and incubated in fresh EGM for 30 minutes prior to stimulation. To stimulate YO-PRO-1 dye uptake, YO-PRO-1 (1 μM) was added to the media and EC monolayers were treated with TNFα at a range of concentrations (0.1 ng/mL-100 ng/mL) for 30 minutes. At the end of the stimulation, cells were washed 3× with 1× PBS and immediately fixed in 4% PFA. Coverslips were then mounted on microscope slides with DAPI ProlongGold mounting agent and visualized on an Olympus IX81 laser scanning confocal microscope. Dye uptake was quantified as the intensity of YO-PRO-1 fluorescence over time using ImageJ software. For time course analysis, YO-PRO-1 was added to the culture media at various time points after TNFα stimulation and incubated to the 30-minute time point. Data are expressed as mean±SEM (n=3 independent experiments).

In a further data set the test system is Panx1. The experiment in a line: Western blot of Panx1 phosphorylation at Y198 in venous ECs. In kind it is cell-based, human. The settings on record: HUVEC and HSaVECs; TNFα 10 ng/mL. Here is the method: (§2) Following stimulation with TNFα (in vitro: 10 ng/mL; ex vivo: 50 ng/mL), confluent endothelial cell monolayers or isolated mesenteric venules were homogenized in ice cold Triton extraction buffer (50 mM Tris-HCL, 150 mM NaCl , 5 mM EDTA, 1% deoxycholate, 1% NP-40 and 1% Triton-X100 in phosphate buffered saline and pH adjusted to 7.4) containing protease and phosphatase inhibitors. Cell/Tissue lysates were incubated with rotation at 4° C. for 20 minutes to solubilize proteins, followed by centrifugation for 5 minutes at 13,000× g to pellet cell debris. Protein concentration was quantified using the BCA method. 15-20 μg of total protein was subjected to SDS gel electrophoresis using 4-12% Bis-Tris gels (Invitrogen) and transferred to nitrocellulose membranes for immunoblotting. Membranes were blocked for 1 hr at room temperature with LiCOR blocking solution, then incubated overnight at 4° C. with primary antibodies against pY416SFKs, (BD Biosciences; 1:1000) pY198Panx1 (Alpha Diagnostic Intl (ADI); 1:1000) and GAPDH (Sigma; 1:10,000) or an antibody against the intracellular loop of Panx1 (Panx1-IL) (ADI; 1:1000) (normalization controls). Membranes were then washed and incubated with LiCOR secondary antibodies (1:10,000) and visualized and quantitated using LiCOR Odyssey. To inhibit SFK activity, EC monolayers were incubated with the SFK inhibitor PP2 (Tocris; 10 μM). […] To show specificity for the phosphorylated form of SFKs and Panx1, cell lysates were incubated with alkaline phosphatase for 1 hour at 37° C. Western blot images have been cropped for presentation. Uncropped Western blots can be found in FIGS. 12-13. Data are expressed as mean±SEM (n=3 independent experiments).

For another data set, the system named is HSaVEC. The experiment in a line: In vitro ATP release assay (luciferin:luciferase), HSaVEC. The settings on record: HSaVEC monolayers. Format: cell-based, human. Here is the method: as §1
The subject of data set [1] is paired mesenteric arterioles. The experiment in a line: Ex vivo vascular perfusion ATP release assay, mesenteric arterioles. In kind it is cell-based, mouse. Conditions: TNFα 50 ng/mL. Here is the method:
For isolated blood vessel experiments, 2nd order venules or arterioles were dissected from the mouse mesentery circulation and cannulated on glass micropipettes to access the vessel lumen. […] Vessels were then perfused with MOPS PSS containing 300 μM ARL 67156 +/− pharmacological inhibitors and incubated for an additional 20 minutes prior to perfusion with MOPS PSS containing recombinant murine TNFα (R&D Systems). Aliquots of the lumenal perfusate were collected every 5 minutes for a 25-minute period and the ATP concentration was quantified by bioluminescence as described above. Data are expressed as mean±SEM (n=4 independent experiments).

Data set [2] has as its system isolated mesenteric venules. The experiment in a line: LDH release assay in perfused venules. In kind it is cell-based, mouse. Conditions: perfusion of TNFα. The method, then: Isolated mesenteric venules were cannulated and perfused with recombinant mouse TNFα for 20 minutes followed by lysis buffer. Perfusate samples were collected as described above and LDH activity was assayed with the Cytotoxicity Detection Kit Plus (Roche) according to the manufacturer's protocol as an output for cell death. Data are expressed as mean±SEM (n=3 independent experiments).

The next data set has as its system Src Family Kinases (SFK). The experiment in a line: Western blot of SFK activation (pY416SFK) in venous ECs. In kind it is cell-based, human. The settings on record: HUVEC and HSaVEC; acute (5 minute) TNFα. Here is the method: as §2

T1 sequence (Q96RD7 whole entry): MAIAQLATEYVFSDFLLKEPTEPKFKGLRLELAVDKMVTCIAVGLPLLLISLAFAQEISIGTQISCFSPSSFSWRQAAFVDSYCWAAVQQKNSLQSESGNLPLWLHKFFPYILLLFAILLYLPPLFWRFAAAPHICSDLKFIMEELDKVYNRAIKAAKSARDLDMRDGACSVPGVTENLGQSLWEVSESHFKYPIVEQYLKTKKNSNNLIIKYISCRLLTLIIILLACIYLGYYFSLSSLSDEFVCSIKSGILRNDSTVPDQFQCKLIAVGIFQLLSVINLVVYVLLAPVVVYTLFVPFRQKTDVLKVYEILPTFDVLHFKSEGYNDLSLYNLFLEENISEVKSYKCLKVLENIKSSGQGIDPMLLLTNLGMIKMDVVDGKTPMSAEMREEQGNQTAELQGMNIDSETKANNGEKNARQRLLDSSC

On to TNFα, for which the “ATP release on cytokine stimulation” value with HAoEC is “failed to release ATP”; with HUVEC (HUVEC monolayers), “significant increase”; with HSaVEC it was “significant increase”. In the data set with HUVEC (EC ATP release, range tested 0.1-100 ng/mL), the “TNFα dose with significant ATP release response” value is on record as at least 10 ng/mL. Besides, the “TNFα concentration giving maximal accumulation of extracellular ATP” value with HUVEC (cultured venous ECs) is recorded as 10 ng/mL. Moreover, in the data set with HUVEC (cultured venous ECs, 10 ng/mL TNFα), the “time to maximal accumulation of extracellular ATP” value is given as “approximately 10 minutes”. The “intracellular YO-PRO-1 dye accumulation” value at Panx1 channels in HUVEC is “significant increase”. Besides, the “Panx1 phosphorylation at Y198” value with Panx1 is “increased phosphorylation at Y198”. Besides, the “ATP accumulation in the perfusate on cytokine perfusion” value in data set [1] is “absent”. Besides, the “cell death (LDH accumulation in perfusates)” value in data set [2] is “did not induce cell death”. The “Y416 phosphorylation of SFK” value with Src Family Kinases (SFK) is reported as “significant increase”.

(Values after patent US11331375B2, “Compositions and methods for regulating leukocyte adhesion” (University of Virginia Patent Foundation, priority 2015, dated 2022).)
